Laboratory results published in patent US20220186186A1, “COMPOSITION FOR INDUCING DIRECT CONVERSION OF SOMATIC CELL INTO COMMON MYELOID PROGENITOR AND USE THEREOF” (KOREA INSTITUTE OF SCIENCE AND TECHNOLOGY, priority 2020, published 2022).

System: neonatal fibroblasts (HDF-N)
Experiment: Direct conversion of neonatal fibroblasts to CMP cells, marker expression by flow cytometry (FACS)
Type: cell-based, human
Description: Human dermal fibroblasts derived from human skin were purchased from ThermoFisher (USA). Human neonatal dermal fibroblasts (HDF-N; neonatal-C0045C) and human adult dermal fibroblasts (HDF-A; adult-C0135C) were purchased, respectively.
To confirm direct conversion potential of fibroblasts to CMP cells, flow cytometry (FACS) analyses were performed. Using the antibodies listed below, expression levels of proteins including the hematopoietic stem cell (HSC) membrane marker CD34, the blood cell membrane marker CD45, and the common myeloid progenitor (CMP) membrane marker CD14, were confirmed. The antibodies used are as follows: • FITC conjugated mouse anti-human CD34 monoclonal antibodies, eBioscience • APC conjugated mouse anti-human CD45 monoclonal antibodies, eBioscience • APC-eFluoro780 conjugated mouse anti-human CD14 monoclonal antibodies, eBioscience
Cells were dissociated into single cells with accutase and then washed with 1% FBS/PBS solution. After treatment with Fc blocker (BD Bioscience) for 10 minutes to prevent non-specific antigen binding, the cells were blocked for 15 minutes using 1% FBS/PBS solution. […] Subsequent to the reaction, the cells were washed twice with cold PBS solution and analyzed by flow cytometry using CytoFLEX by Beckman, and data were analyzed using the CytExpert program. […]

Cc1cccc(-c2n[nH]cc2-c2ccc3ncccc3n2)n1 [Example 3-1, 2-[3-(6-methylpyridin-2-yl)-1H-pyrazol-4-yl]-1,5-naphthyridine]
expression of the blood cell marker CD45 (28 days, inhibitor alone, Table 3 and FIG. 18): increase
CD45-expressing cell (%) compared to negative control group (Cnt) (cultured 28 days in reprogramming media with the chemical composition, Table 3): 6.36%
